Data from patent publication US20090274773A1, “ANTIPROLIFERATIVE COMBINATION COMPRISING CYC-682 AND A CYTOTOXIC AGENT” (Cyclacel Limited, priority 2005, published 2009).

Tests used:
Format in all cases: cell-based, human
COLO205 = experiment: MTT growth inhibition assay, single agent; conditions: Homo sapiens, COLO 205, 24 hours exposure, read-out: Antiproliferative effects IC50s (MTT assay)
Method: (§1) All cell lines were obtained from the ATCC (Rockville, Md.). Cells were grown as monolayers in RPMI medium supplemented with 10% fetal calf serum (Invitrogen, Cergy-Pontoise, France), 2 mM glutamine, 100 units/ml penicillin and 100 μg/ml streptomycin. All cells were split twice a week using trypsin/EDTA (0.25% and 0.02%, respectively; Invitrogen, Cergy-Pontoise, France) and seeded at a concentration of 2.5×10^4 cells/ml. All cell lines were tested regularly for Mycoplasma contamination by PCR using a Stratagene kit (La Jolla, Calif.).
(§2) The MTT assay was carried out as described previously (Hansen M B, Nielsen S E, Berg K. Re-examination and further development of a precise and rapid dye method for measuring cell growth/cell kill. J Immunol Methods. 1989 May 12; 119(2):203-10). In brief, cells were seeded in 96-well tissue culture plates at a density of 2×10^3 cells/well. Cell viability was determined after a 120-hour incubation, by the calorimetric conversion of yellow, water-soluble tetrazolium MTT (3-[4,5-dimethylthiazol-2-yl]-2,5-diphenyltetrazolium bromide; Sigma, Saint-Quentin Fallavier, France), into purple, water-insoluble formazan. This reaction is catalyzed by mitochondrial dehydrogenases and is used to estimate the relative number of viable cells (Mosmann, T, Rapid calorimetric assay for cellular growth and survival: application to proliferation and cytotoxicity assays. J Immunol Methods. 1983 Dec. 16; 65 (1-2):55-63). Cells were incubated with 0.4 mg/ml MTT for 4 hours at 37° C. After incubation, the supernatant was discarded, the cell pellet was resuspended in 0.1 ml of DMSO and the absorbance was measured at 560 nm using a microplate reader (Dynatech, Michigan). Wells with untreated cells or with drug-containing medium without cells were used as positive and negative controls, respectively. Growth inhibition curves were plotted as a percentage of untreated control cells.
(§3) The cells were seeded at 2×10^3 cells/well in 96-well plates and treated 24 hours later with increasing concentrations of CYC682. After incubation times of 1 hour, 24 hours or 48 hours, the cells were washed and post-incubated in drug-free medium for 72 hours. Growth inhibition was then determined by the MTT assay.

HCC2998 = experiment: MTT growth inhibition assay, single agent; conditions: Homo sapiens, HCC 2998, 24 hours exposure, read-out: Antiproliferative effects IC50s (MTT assay)
Method: as §1, §2, §3

HCT116 = experiment: MTT growth inhibition assay, single agent; conditions: Homo sapiens, HCT-116, 24 hours exposure, read-out: Antiproliferative effects IC50s (MTT assay)
Method: as §1, §2, §3

HOP62 = experiment: MTT growth inhibition assay, single agent; conditions: Homo sapiens, HOP-62, 24 hours exposure, read-out: Antiproliferative effects IC50s (MTT assay)
Method: as §1, §2, §3

HOP92 = experiment: MTT growth inhibition assay, single agent; conditions: Homo sapiens, HOP-92, 24 hours exposure, read-out: Antiproliferative effects IC50s (MTT assay)
Method: as §1, §2, §3

HT29 = experiment: MTT growth inhibition assay, single agent; conditions: Homo sapiens, HT-29, 24 hours exposure, read-out: Antiproliferative effects IC50s (MTT assay)
Method: as §1, §2, §3

IGROV1 = experiment: MTT growth inhibition assay, single agent; conditions: Homo sapiens, IGROV-1, 24 hours exposure, read-out: Antiproliferative effects IC50s (MTT assay)
Method: as §1, §2, §3

MCF7 = experiment: MTT growth inhibition assay, single agent; conditions: Homo sapiens, 24 hours exposure, read-out: Antiproliferative effects IC50s (MTT assay)
Method: as §1, §2, §3

MDA-MB-435 = experiment: MTT growth inhibition assay, single agent; conditions: Homo sapiens, 24 hours exposure, read-out: Antiproliferative effects IC50s (MTT assay)
Method: as §1, §2, §3

OVCAR1 = experiment: MTT growth inhibition assay, single agent; conditions: Homo sapiens, 24 hours exposure, read-out: Antiproliferative effects IC50s (MTT assay)
Method: as §1, §2, §3

NSCLC cell line H1299 = experiment: CNDAC combinations (alamar blue, Calcusyn Combination Index); conditions: for Interaction with CNDAC (in words), summary of Table 3: combination with CNDAC, regime not specified; for Combination Index at ED50, Concomitant / Combination Index at ED75, Concomitant / Combination Index at ED90, Concomitant: simultaneous treatment 72 h
Method: Experiments in the NSCLC cell lines H1299 or RERF-LC-MA were performed in 96-well plates, with cells seeded at a density of 3,000/well, in DMEM containing 10% (v/v) FCS. Stock solutions of all drugs were made up in dimethylsulfoxide (DMSO), with the exception of gemcitabine, which was dissolved in 0.9% (w/v) sterile saline solution.
For experimental assessment of potential synergistic interactions, the concomitant treatment regime involved simultaneous treatment of cells with CNDAC and the other agent under investigation for 72 h, alongside suitable controls of cells treated with the individual compounds alone for 72 hr. In the sequential treatment regimes, one drug was added to the cells 2 h after plating, and left for 24 h. Media was then aspirated, replaced with fresh media containing the second drug and incubated for 72 h. The two individual treatment controls for the sequential treatment regime involved substituting one of the drug treatments with drug-free media. […] Drug interactions were analysed using the Calcusyn software package (BioSoft, Cambridge, U.K.) described below.

[1] = named agent in combination with CNDAC, H1299
[2] = named agent in combination with CNDAC, H1299, CNDAC 24 h then other agent 72 h
[3] = named agent in combination with CNDAC, H1299, named agent 24 h then CNDAC 72 h

IC50 (COLO205) [nM] | IC50 (HCC2998) [nM] | IC50 (HCT116) [nM] | IC50 (HT29) [nM] | IC50 (MCF7) [nM] | IC50 (MDA-MB-435) [nM] | IC50 (OVCAR1) [nM] | Structure (SMILES) | IC50 (HOP62) [nM] | IC50 (HOP92) [nM] | IC50 (IGROV1) [nM] | Interaction with CNDAC (in words), summary of Table 3 (NSCLC cell line H1299) | Combination Index at ED50, Concomitant (NSCLC cell line H1299; [1]) | Combination Index at ED75, Concomitant (NSCLC cell line H1299; [1]) | Combination Index at ED90, Concomitant (NSCLC cell line H1299; [1]) | further results
6 ± 1 | 4 ± 1 | 10 ± 20 | 10 ± 2 | 10 ± 4 | 10 ± 2 | 50000 ± 120 | CC(=O)O[C@@]12CO[C@@H]1C[C@H](O)[C@@]1(C)C(=O)[C@H](O)C3=C(C)[C@@H](OC(=O)[C@H](O)[C@@H](NC(=O)OC(C)(C)C)c4ccccc4)C[C@@](O)([C@@H](OC(=O)c4ccccc4)[C@H]21)C3(C)C [Docetaxel] | 20 ± 40 | 5 ± 1 | 20 ± 10 | synergistic drug interactions | 0.93 | 1.13 | 2.01 | 
1500 ± 500 | 700 ± 140 | 100 ± 20 | 1070 ± 160 | 700 ± 100 | 2000 ± 400 | 1000 ± 200 | COc1cccc2c1C(=O)c1c(O)c3c(c(O)c1C2=O)C[C@@](O)(C(=O)CO)C[C@@H]3O[C@H]1C[C@H](N)[C@H](O)[C@H](C)O1 [Doxorubicin] | 140 ± 40 | 100 ± 50 | 1300 ± 300 | synergistic drug interactions | 0.63 | 1.14 | 2.75 | Interaction with CNDAC at ED50 (in words) (NSCLC cell line H1299; H1299, concomitant treatment): synergy; Interaction with CNDAC at ED50 (in words) (NSCLC cell line H1299; H1299, pre-treatment with named agent): synergy; Combination Index at ED75, CNDAC pretreatment (NSCLC cell line H1299; [2]): 1.24; Combination Index at ED90, CNDAC pretreatment (NSCLC cell line H1299; [2]): 2.23; Combination Index at ED50, CNDAC pretreatment (NSCLC cell line H1299; named agent in combination with CNDAC, H1299, CNDAC 24 h then other agent 72 h, C.I. <1 synergistic, 1 additive, >1 antagonistic): 0.95; Combination Index at ED50, Other (named agent) pretreatment (NSCLC cell line H1299; [3]): 0.64; Combination Index at ED75, Other (named agent) pretreatment (NSCLC cell line H1299; [3]): 0.83; Combination Index at ED90, Other (named agent) pretreatment (NSCLC cell line H1299; [3]): 1.63
